Measurements taken from PubChem BioAssay AID248 (DTP/NCI, 2004).
Where “and” joins values, the source holds several entries; their conditions need not be identical. Equal entries are not always repeated. Toxic doses and inconclusive results are not listed. Cut-off read from the data, not from the text of the source: active = T/C of 150% or more; inactive = T/C below 125%.

Tested on: L1210 leukemia ip in BDF1 mice, survival T/C
Experiment: NCI In Vivo Anticancer Drug Screen. Data for tumor model L1210 Leukemia (intraperitoneal) in B6D2F1 (BDF1) mice
Details: endpoint: mean survival time, higher = longer survival
How it was run: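 Read-out is survival time, reported as the treated-group measurement over the vehicle-control measurement.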

[1] = dose: 100.0 mg/kg/injection, schedule: Q04DX003 (ip), vehicle: other
[2] = dose: 200.0 mg/kg/injection, schedule: Q04DX003 (ip), vehicle: other
[3] = dose: 400.0 mg/kg/injection, schedule: Q04DX003 (ip), vehicle: other
[4] = dose: 100.0 mg/kg/injection, schedule: Q04DX003 (ip), vehicle: saline with Tween-80
[5] = dose: 200.0 mg/kg/injection, schedule: Q04DX003 (ip), vehicle: saline with Tween-80
[6] = dose: 100.0 mg/kg/injection, schedule: Q01DX001 (ip), vehicle: saline
[7] = dose: 200.0 mg/kg/injection, schedule: Q01DX001 (ip), vehicle: saline
[8] = dose: 400.0 mg/kg/injection, schedule: Q01DX001 (ip), vehicle: saline
[9] = dose: 25.0 mg/kg/injection, schedule: Q01DX009 (ip), vehicle: Klucel (hydroxypropylcellulose) (HPC)
[10] = dose: 25.0 mg/kg/injection, schedule: Q04DX003 (ip), vehicle: Klucel (hydroxypropylcellulose) (HPC)
[11] = dose: 50.0 mg/kg/injection, schedule: Q01DX009 (ip), vehicle: Klucel (hydroxypropylcellulose) (HPC)
[12] = dose: 50.0 mg/kg/injection, schedule: Q04DX003 (ip), vehicle: Klucel (hydroxypropylcellulose) (HPC)
[13] = dose: 100.0 mg/kg/injection, schedule: Q04DX003 (ip), vehicle: Klucel (hydroxypropylcellulose) (HPC)
[14] = dose: 50.0 mg/kg/injection, schedule: Q01DX001 (ip), vehicle: other
[15] = dose: 100.0 mg/kg/injection, schedule: Q01DX001 (ip), vehicle: other
[16] = dose: 200.0 mg/kg/injection, schedule: Q01DX001 (ip), vehicle: other
[17] = dose: 400.0 mg/kg/injection, schedule: Q01DX001 (ip), vehicle: other
[18] = dose: 200.0 mg/kg/injection, schedule: Q04DX003 (ip), vehicle: Klucel (hydroxypropylcellulose) (HPC)
[19] = dose: 400.0 mg/kg/injection, schedule: Q04DX003 (ip), vehicle: Klucel (hydroxypropylcellulose) (HPC)
[20] = dose: 100.0 mg/kg/injection, schedule: Q04DX003 (ip), vehicle: saline
[21] = dose: 100.0 mg/kg/injection, schedule: Q01DX009 (ip), vehicle: saline
[22] = dose: 200.0 mg/kg/injection, schedule: Q01DX009 (ip), vehicle: saline
[23] = dose: 100.0 mg/kg/injection, schedule: Q04DX002 (ip), vehicle: Klucel (hydroxypropylcellulose) (HPC)
[24] = dose: 200.0 mg/kg/injection, schedule: Q04DX002 (ip), vehicle: Klucel (hydroxypropylcellulose) (HPC)
[25] = dose: 400.0 mg/kg/injection, schedule: Q04DX002 (ip), vehicle: Klucel (hydroxypropylcellulose) (HPC)
[26] = dose: 400.0 mg/kg/injection, schedule: Q04DX003 (ip), vehicle: saline with Tween-80

Measured: T/C

NC(=O)N/N=C1\CC2CC1C1CCCC21 (centres undefined)
inactive: [1] 104 % of control | [2] 98 % of control | [3] 94 % of control

O=C(O)c1cnc(Cl)c([N+](=O)[O-])c1
inactive: [4] 96 % of control | [5] 89 % of control

CCOC(=O)/C=C(/CC(=O)OCC)Nc1ccc(C)cc1
inactive: [6] 89 % of control | [7] 99 % of control | [8] 97 % of control

COc1ccc(N=C=Nc2ccc(OC)cc2)cc1
inactive: dose: 12.0 mg/kg/injection, schedule: Q01DX009 (ip), vehicle: Klucel (hydroxypropylcellulose) (HPC) 101 % of control | [9] 108 % of control | [10] 96 % of control | [11] 90 % of control | [12] 93 % of control | [13] 98 % of control

Cc1cccc2cc[nH]c12
inactive: [14] 115 % of control | [15] 87 % of control | [16] 102 % of control | [17] 96 % of control

C=CCOc1ccc(OCC=C)nn1
inactive: [13] 104 % of control | [18] 97 % of control | [19] 101 % of control

O=S1(=O)c2ccccc2NC(c2ccc(Cl)cc2)C1c1ccccc1 (centres undefined)
inactive: [20] 95 % of control | dose: 200.0 mg/kg/injection, schedule: Q04DX003 (ip), vehicle: saline 89 % of control | dose: 400.0 mg/kg/injection, schedule: Q04DX003 (ip), vehicle: saline 97 % of control

NC1(C(=O)O)C2CC3CC(C2)CC1C3 (centres undefined)
inactive: dose: 50.0 mg/kg/injection, schedule: Q01DX009 (ip), vehicle: other 100 % of control | dose: 100.0 mg/kg/injection, schedule: Q01DX009 (ip), vehicle: other 105 % of control | dose: 100.0 mg/kg/injection, schedule: Q04DX003 (ip), vehicle: alcohol 96 % of control | dose: 200.0 mg/kg/injection, schedule: Q01DX009 (ip), vehicle: other 92 % of control | dose: 200.0 mg/kg/injection, schedule: Q04DX003 (ip), vehicle: alcohol 95 % of control

O=S(=O)(O)CNc1ccccc1
inactive: [21] 93 % of control | [22] 93 % of control | dose: 400.0 mg/kg/injection, schedule: Q01DX009 (ip), vehicle: saline 95 % of control

CCOCCN1C=C/C(=C/C=C/c2cc[n+](CCOCC)c3ccccc23)c2ccccc21
inactive: dose: 0.31 mg/kg/injection, schedule: Q04DX003 (ip), vehicle: saline 98 % of control | dose: 0.45 mg/kg/injection, schedule: Q01DX009 (ip), vehicle: saline 104 % of control | dose: 0.62 mg/kg/injection, schedule: Q04DX003 (ip), vehicle: saline 121 % of control | dose: 0.9 mg/kg/injection, schedule: Q01DX009 (ip), vehicle: saline 118 % of control | dose: 1.25 mg/kg/injection, schedule: Q01DX001 (ip), vehicle: saline 96 % of control | dose: 1.25 mg/kg/injection, schedule: Q04DX003 (ip), vehicle: saline 111 % of control | dose: 1.8 mg/kg/injection, schedule: Q04DX003 (ip), vehicle: saline 98 % of control

O=C(NCCCl)NC1CCC2CCCCC2C1 (centres undefined)
inactive: dose: 100.0 mg/kg/injection, schedule: Q01DX001 (ip), vehicle: Klucel (hydroxypropylcellulose) (HPC) 100 % of control | [13] 92 % of control | dose: 200.0 mg/kg/injection, schedule: Q01DX001 (ip), vehicle: Klucel (hydroxypropylcellulose) (HPC) 102 % of control | [18] 97 % of control | dose: 400.0 mg/kg/injection, schedule: Q01DX001 (ip), vehicle: Klucel (hydroxypropylcellulose) (HPC) 92 % of control | [19] 97 % of control

FC(F)(F)c1cccc(-n2nncc2-c2ccc(Cl)cc2)c1
inactive: [23] 96 % of control | [24] 101 % of control | [25] 96 % of control

CSCOC1C(COC(c2ccccc2)(c2ccccc2)c2ccccc2)OC(OCc2ccccc2)C(NC(C)=O)C1OCc1ccccc1 (centres undefined)
inactive: dose: 25.0 mg/kg/injection, schedule: Q01DX001 (ip), vehicle: saline with Tween-80 95 % of control | dose: 50.0 mg/kg/injection, schedule: Q01DX001 (ip), vehicle: saline with Tween-80 91 % of control | dose: 100.0 mg/kg/injection, schedule: Q01DX001 (ip), vehicle: saline with Tween-80 101 % of control and 91 % of control | dose: 400.0 mg/kg/injection, schedule: Q01DX001 (ip), vehicle: saline with Tween-80 94 % of control

Cc1cc(OC(=O)Nc2cc([N+](=O)[O-])ccc2F)cc(C)c1Cl
inactive: [13] 89 % of control | [18] 91 % of control | [19] 93 % of control

COc1cccc(C(=O)CC(O)(C(F)(F)F)C(F)(F)F)c1
inactive: dose: 50.0 mg/kg/injection, schedule: Q04DX003 (ip), vehicle: other 100 % of control | [1] 96 % of control | [2] 98 % of control | [3] 104 % of control

O=C1C2CCC(=O)N2c2ccccc2S(=O)(=O)C1c1ccccc1 (centres undefined)
inactive: dose: 12.5 mg/kg/injection, schedule: Q01DX009 (ip), vehicle: Klucel (hydroxypropylcellulose) (HPC) 95 % of control | [9] 98 % of control | [10] 96 % of control | [11] 91 % of control | [12] 96 % of control

O/N=C/c1cccc(/C=N/O)c1
inactive: dose: 50.0 mg/kg/injection, schedule: Q01DX009 (ip), vehicle: saline with Tween-80 94 % of control | dose: 50.0 mg/kg/injection, schedule: Q04DX003 (ip), vehicle: saline with Tween-80 95 % of control | dose: 100.0 mg/kg/injection, schedule: Q01DX009 (ip), vehicle: saline with Tween-80 98 % of control | [4] 97 % of control | dose: 200.0 mg/kg/injection, schedule: Q01DX009 (ip), vehicle: saline with Tween-80 102 % of control | [5] 100 % of control | dose: 400.0 mg/kg/injection, schedule: Q01DX009 (ip), vehicle: saline with Tween-80 95 % of control | [26] 93 % of control

O=C(Nc1ccccc1)C(Cl)(Cl)Cl
inactive: [14] 104 % of control | [15] 102 % of control | [23] 106 % of control | [16] 102 % of control | [24] 92 % of control | [17] 104 % of control | [25] 89 % of control

Cc1csc2nccc(Cl)c12
inactive: dose: 50.0 mg/kg/injection, schedule: Q04DX002 (ip), vehicle: saline with Tween-80 98 % of control | dose: 100.0 mg/kg/injection, schedule: Q04DX002 (ip), vehicle: saline with Tween-80 91 % of control

O=C(SCCN1CCCC1)N1c2ccccc2Sc2ccc(Cl)cc21
inactive: dose: 75.0 mg/kg/injection, schedule: Q01DX001 (ip), vehicle: carboxymethylcellulose (CMC) 94 % of control | dose: 150.0 mg/kg/injection, schedule: Q01DX001 (ip), vehicle: carboxymethylcellulose (CMC) 94 % of control

O=C(NC1CCCCC1)O/N=C/c1ccccn1
inactive: [1] 94 % of control | [2] 109 % of control | [3] 94 % of control

CCCCNCCCC
inactive: dose: 25.0 mg/kg/injection, schedule: Q04DX003 (ip), vehicle: saline 102 % of control | dose: 50.0 mg/kg/injection, schedule: Q04DX003 (ip), vehicle: saline 96 % of control | [20] 94 % of control

CCC(=O)Nc1cccc(OC(=O)N(C)C)c1
inactive: [4] 100 % of control | [5] 98 % of control | [26] 100 % of control

O=c1[nH]c2ncccc2c(=O)n1OS(=O)(=O)c1ccccc1
inactive: dose: 50.0 mg/kg/injection, schedule: Q01DX001 (ip), vehicle: saline 102 % of control | dose: 50.0 mg/kg/injection, schedule: Q01DX009 (ip), vehicle: saline 98 % of control | [6] 96 % of control | [21] 106 % of control | [7] 93 % of control | [22] 98 % of control | [8] 96 % of control
